Experiments:
MRP2 = target: T1, MRP2 (Homo sapiens, UniProt Q92887); assay: Bidirectional transport of CDCFDA in MDCKII-MRP2 cells; format: cell-based
T1 construct: host or cells: MDCK II (canine kidney) cells transfected with MRP2
Procedure: Human colon epithelial cell line (Caco-2) was purchased from American Type Culture Collection (Manassas, VA, United States) and frozen at -80°C. Wild type MDCK II, MDR1-MDCK II, BCRP-MDCK II, and MRP2-MDCK II cells were kindly supplied by the Netherlands Cancer Institute (Amsterdam, Netherlands). Transport study was carried out with Caco-2 cells, and MDCK II cells were transfected using a previously established method with slight modifications ([Yuan et al., 2017]). The Caco-2 cells were cultured at 37°C/5% CO2 in Dulbecco’s modified Eagle’s medium (DMEM) supplemented with 10% fetal bovine serum, 1% nonessential amino acids, and 1% penicillin-streptomycin. […]
Bidirectional transport assays for Caco-2 and MDCK II cells were performed by adding silybin (10 μM) in assay buffer into either the apical (AP; A-to-B) or basolateral (BL; B-to-A) chamber, and each 100 μl sample was collected at 30, 60, 90, 120, and 180 min. […] The fluorescence intensity of the sample collected from the AP or BL side was immediately detected in a 96-well black plate by the Microplate UV/VIS spectrophotometer (TECAN Infinite M200 PRO, Männedorf, Switzerland). […]
where dQ/dt (mM/s) represents the rate of permeation of the drug across the cells, C0 (mM) refers to the concentration in the donor compartment at time zero calculated from dosing solution, and A (cm^2) refers to the area of the cell monolayer. […]

[1] = test system: sandwich-cultured rat hepatocytes; assay: Biliary excretion in sandwich-cultured rat hepatocytes (SCH); format: in vitro ADME
Procedure: Sandwich-cultured rat hepatocytes (SCHs) model was established based on a previously described method with minor modifications ([Swift et al., 2010]). In brief, primary rat hepatocytes were prepared from male Sprague Dawley (SD) rats (220–270 g) using collagenase perfusion as described previously ([Liu et al., 1999]) and then were plated on 6-well plates at a density of 7.4 × 10^5 cells/2 ml/well. Approximately 24 h later, hepatocytes were overlaid with 2 ml of BD Matrigel basement membrane matrix in DMEM (0.25 mg/ml) containing 1% (v/v) insulin/transferrin/selenium culture supplement, […], 2 mM L-glutamine, and 1% penicillin-streptomycin. Hepatocytes were cultured for 4 days with daily medium replacements until the canalicular network was extensively formatted between the cells before the experiment. Evaluation of biliary excretion in SCHs was carried out according to a previously described method ([Liu et al., 1999]). […] Samples were quantified by LC-MS/MS analysis, and the transport function was normalized to the protein content of the hepatocytes. […] Later, the residues were reconstituted with 60 μl of 30% methanol in water containing 1% ascorbic acid, and an aliquot of 10 μl of final solution after centrifugation was analyzed by LC-MS/MS. […] The quantitative linear range for silybin A and B was 5 to 12500 ng/ml.

MDR1 = target: T2, MDR1 (Homo sapiens, UniProt P08183); assay: Bidirectional transport of Rho123 in MDCKII-MDR1 cells; format: cell-based; conditions: dog, MDCK-MDR1, absence of inhibitor
T2 construct: host or cells: MDCK II (canine kidney) cells transfected with MDR1
Procedure: (§1) Human colon epithelial cell line (Caco-2) was purchased from American Type Culture Collection (Manassas, VA, United States) and frozen at -80°C. Wild type MDCK II, MDR1-MDCK II, BCRP-MDCK II, and MRP2-MDCK II cells were kindly supplied by the Netherlands Cancer Institute (Amsterdam, Netherlands). […] The Caco-2 cells were cultured at 37°C/5% CO2 in Dulbecco’s modified Eagle’s medium (DMEM) supplemented with 10% fetal bovine serum, 1% nonessential amino acids, and 1% penicillin-streptomycin. The Caco-2 cells were seeded onto polyester filter membranes in a 12-well Transwell® plate (Corning Costar Co., NY, United States) with 0.6 × 10^5 cells/cm^2. […]
(§2) For inhibition studies, Caco-2 or MDCK II cell monolayers in both apical and basolateral chambers were preincubated with the inhibitor for 30 min. The fluorescence intensity of the sample collected from the AP or BL side was immediately detected in a 96-well black plate by the Microplate UV/VIS spectrophotometer (TECAN Infinite M200 PRO, Männedorf, Switzerland). […]
(§3) where dQ/dt (mM/s) represents the rate of permeation of the drug across the cells, C0 (mM) refers to the concentration in the donor compartment at time zero calculated from dosing solution, and A (cm^2) refers to the area of the cell monolayer. Papp (B-A) is the Papp value measured in the B to A direction, and Papp (A-B) is the Papp value measured in the A to B direction. […]

[2] = test system: CCl4-induced liver injury model; assay: CCl4-induced acute liver injury in rats; format: in vivo, SD rats; set-up: Nerosis (histologic score, liver H&E) / Haemorrhage (histologic score, liver H&E) / Inflammation (histologic score, liver H&E) / Steatosis (histologic score, liver H&E): scale not given here
Procedure: Male SD rats were randomly divided into seven groups: […] (2) Group II, given blank vehicle p.o. for 7 days; (3) Group III, treatment with silybin (100 mg/kg bodyweight, p.o.) for 7 days; […] After 24 h of CCl4 treatment, all rats were sacrificed under ether anesthesia. Blood samples were collected from the abdominal aorta for biochemical estimations. The liver was immediately removed and weighed with a large portion of the liver frozen in liquid nitrogen. The pathological liver changes were examined by hematoxylin and eosin (H&E) staining, which was performed by a pathologist who was blinded to this study. The serum levels of ALT, AST, AKP, and SOD as well as the cytokines TNF- α, IL-6, and IL-1β were detected by the assay kit, according to the manufacturer’s instructions.

[3] = ref Lai et al., 2003, cited from earlier work
Caco-2 cells = assay: Bidirectional transport of silybin across Caco-2 cell monolayers; format: in vitro ADME, Human; conditions: Caco-2 monolayers, silybin 10 μM
Procedure: Human colon epithelial cell line (Caco-2) was purchased from American Type Culture Collection (Manassas, VA, United States) and frozen at -80°C. Wild type MDCK II, MDR1-MDCK II, BCRP-MDCK II, and MRP2-MDCK II cells were kindly supplied by the Netherlands Cancer Institute (Amsterdam, Netherlands). Transport study was carried out with Caco-2 cells, and MDCK II cells were transfected using a previously established method with slight modifications ([Yuan et al., 2017]). The Caco-2 cells were cultured at 37°C/5% CO2 in Dulbecco's modified Eagle's medium (DMEM) supplemented with 10% fetal bovine serum, 1% nonessential amino acids, and 1% penicillin-streptomycin. The Caco-2 cells were seeded onto polyester filter membranes in a 12-well Transwell® plate (Corning Costar Co., NY, United States) with 0.6 × 10^5 cells/cm^2. The monolayer cells were used for transport assays between 21 and 23 days. The MDCKII cells were seeded on transwell plates with a density of 2.0 × 10^5 cells/cm^2 and grown for 4-5 days to form a confluent monolayer. Bidirectional transport assays for Caco-2 and MDCK II cells were performed by adding silybin (10 μM) in assay buffer into either the apical (AP; A-to-B) or basolateral (BL; […] For inhibition studies, Caco-2 or MDCK II cell monolayers in both apical and basolateral chambers were preincubated with the inhibitor for 30 min. The fluorescence intensity of the sample collected from the AP or BL side was immediately detected in a 96-well black plate by the Microplate UV/VIS spectrophotometer (TECAN Infinite […], Männedorf, Switzerland). For liquid chromatography tandem-mass spectrometry (LC-MS/MS) analysis, the sample (100 μl) was mixed with methanol (50 μl) containing internal standard (25 ng/ml) and was stored at -80°C. The formula for calculating apparent permeability coefficient (Papp) values is as follows: (1) […] where dQ/dt (mM/s) represents the rate of permeation of the drug across the cells, C0 (mM) refers to the concentration in the donor compartment at time zero calculated from dosing solution, and A (cm^2) refers to the area of the cell monolayer. Papp (B-A) is the Papp value measured in the B to A direction, and Papp (A-B) is the Papp value measured in the A to B direction. The efflux ratio is given as ER = Papp (B to A)/Papp (A to B).

BCRP = target: T3, BCRP (Homo sapiens, UniProt Q9UNQ0); assay: Bidirectional transport of pheophorbide A in MDCKII-BCRP cells; format: cell-based; conditions: dog, absence of inhibitor
T3 construct: host or cells: MDCK II (canine kidney) cells transfected with BCRP
T3 sequence (Q9UNQ0 1-655): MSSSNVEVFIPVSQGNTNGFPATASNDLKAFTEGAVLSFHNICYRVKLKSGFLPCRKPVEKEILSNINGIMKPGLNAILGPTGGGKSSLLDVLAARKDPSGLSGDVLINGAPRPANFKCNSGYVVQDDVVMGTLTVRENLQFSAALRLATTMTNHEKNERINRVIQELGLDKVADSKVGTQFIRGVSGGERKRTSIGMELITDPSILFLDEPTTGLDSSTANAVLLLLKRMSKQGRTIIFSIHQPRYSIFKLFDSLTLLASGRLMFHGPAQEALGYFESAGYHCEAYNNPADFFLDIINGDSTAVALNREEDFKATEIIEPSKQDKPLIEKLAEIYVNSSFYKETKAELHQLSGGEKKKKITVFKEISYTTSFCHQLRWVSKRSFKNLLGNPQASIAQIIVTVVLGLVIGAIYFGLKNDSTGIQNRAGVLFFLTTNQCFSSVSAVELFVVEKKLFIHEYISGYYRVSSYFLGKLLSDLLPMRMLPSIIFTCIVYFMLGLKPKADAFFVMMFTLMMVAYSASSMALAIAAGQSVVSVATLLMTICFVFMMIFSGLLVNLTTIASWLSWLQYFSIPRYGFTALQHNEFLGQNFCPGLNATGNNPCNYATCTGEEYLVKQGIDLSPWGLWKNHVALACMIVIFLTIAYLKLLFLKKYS
Procedure: as §1, §2, §3

[4] = 100 mg/kg p.o. 7 days, single agent, CCl4 on day 7

T2 sequence (P08183 whole entry): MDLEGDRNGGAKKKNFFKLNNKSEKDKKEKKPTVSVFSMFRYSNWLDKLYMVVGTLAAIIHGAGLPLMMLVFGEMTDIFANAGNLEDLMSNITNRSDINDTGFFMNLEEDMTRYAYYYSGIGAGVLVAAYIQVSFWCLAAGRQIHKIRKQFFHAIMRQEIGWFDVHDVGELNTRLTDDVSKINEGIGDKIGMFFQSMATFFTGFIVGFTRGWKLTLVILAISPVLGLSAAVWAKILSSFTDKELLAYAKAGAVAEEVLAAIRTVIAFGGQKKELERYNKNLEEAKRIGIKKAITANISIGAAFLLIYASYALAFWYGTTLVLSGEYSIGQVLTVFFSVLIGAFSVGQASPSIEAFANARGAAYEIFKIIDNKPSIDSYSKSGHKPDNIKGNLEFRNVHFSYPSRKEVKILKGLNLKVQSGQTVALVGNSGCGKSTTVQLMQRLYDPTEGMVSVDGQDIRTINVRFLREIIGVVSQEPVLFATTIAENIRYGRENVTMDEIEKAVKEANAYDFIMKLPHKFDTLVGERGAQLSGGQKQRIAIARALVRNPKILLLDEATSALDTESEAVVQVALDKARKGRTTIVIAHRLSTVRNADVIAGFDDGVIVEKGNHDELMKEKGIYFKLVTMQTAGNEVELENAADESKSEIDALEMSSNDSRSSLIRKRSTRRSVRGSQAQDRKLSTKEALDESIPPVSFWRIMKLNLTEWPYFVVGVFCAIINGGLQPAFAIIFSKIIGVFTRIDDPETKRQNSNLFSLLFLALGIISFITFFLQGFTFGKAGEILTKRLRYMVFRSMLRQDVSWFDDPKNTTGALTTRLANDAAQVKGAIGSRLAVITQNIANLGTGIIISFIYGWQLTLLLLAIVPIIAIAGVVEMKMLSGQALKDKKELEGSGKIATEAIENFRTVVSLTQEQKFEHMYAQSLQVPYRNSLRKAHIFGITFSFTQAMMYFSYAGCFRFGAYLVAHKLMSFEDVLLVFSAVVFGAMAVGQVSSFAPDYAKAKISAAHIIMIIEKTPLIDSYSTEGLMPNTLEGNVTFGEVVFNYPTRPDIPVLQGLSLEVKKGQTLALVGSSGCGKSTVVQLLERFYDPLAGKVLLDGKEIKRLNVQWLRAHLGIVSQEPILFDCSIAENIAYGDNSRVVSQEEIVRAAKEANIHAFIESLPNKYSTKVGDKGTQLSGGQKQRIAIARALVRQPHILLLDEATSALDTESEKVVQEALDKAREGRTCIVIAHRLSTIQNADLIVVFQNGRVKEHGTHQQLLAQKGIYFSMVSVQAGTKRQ
T1 sequence (Q92887 whole entry): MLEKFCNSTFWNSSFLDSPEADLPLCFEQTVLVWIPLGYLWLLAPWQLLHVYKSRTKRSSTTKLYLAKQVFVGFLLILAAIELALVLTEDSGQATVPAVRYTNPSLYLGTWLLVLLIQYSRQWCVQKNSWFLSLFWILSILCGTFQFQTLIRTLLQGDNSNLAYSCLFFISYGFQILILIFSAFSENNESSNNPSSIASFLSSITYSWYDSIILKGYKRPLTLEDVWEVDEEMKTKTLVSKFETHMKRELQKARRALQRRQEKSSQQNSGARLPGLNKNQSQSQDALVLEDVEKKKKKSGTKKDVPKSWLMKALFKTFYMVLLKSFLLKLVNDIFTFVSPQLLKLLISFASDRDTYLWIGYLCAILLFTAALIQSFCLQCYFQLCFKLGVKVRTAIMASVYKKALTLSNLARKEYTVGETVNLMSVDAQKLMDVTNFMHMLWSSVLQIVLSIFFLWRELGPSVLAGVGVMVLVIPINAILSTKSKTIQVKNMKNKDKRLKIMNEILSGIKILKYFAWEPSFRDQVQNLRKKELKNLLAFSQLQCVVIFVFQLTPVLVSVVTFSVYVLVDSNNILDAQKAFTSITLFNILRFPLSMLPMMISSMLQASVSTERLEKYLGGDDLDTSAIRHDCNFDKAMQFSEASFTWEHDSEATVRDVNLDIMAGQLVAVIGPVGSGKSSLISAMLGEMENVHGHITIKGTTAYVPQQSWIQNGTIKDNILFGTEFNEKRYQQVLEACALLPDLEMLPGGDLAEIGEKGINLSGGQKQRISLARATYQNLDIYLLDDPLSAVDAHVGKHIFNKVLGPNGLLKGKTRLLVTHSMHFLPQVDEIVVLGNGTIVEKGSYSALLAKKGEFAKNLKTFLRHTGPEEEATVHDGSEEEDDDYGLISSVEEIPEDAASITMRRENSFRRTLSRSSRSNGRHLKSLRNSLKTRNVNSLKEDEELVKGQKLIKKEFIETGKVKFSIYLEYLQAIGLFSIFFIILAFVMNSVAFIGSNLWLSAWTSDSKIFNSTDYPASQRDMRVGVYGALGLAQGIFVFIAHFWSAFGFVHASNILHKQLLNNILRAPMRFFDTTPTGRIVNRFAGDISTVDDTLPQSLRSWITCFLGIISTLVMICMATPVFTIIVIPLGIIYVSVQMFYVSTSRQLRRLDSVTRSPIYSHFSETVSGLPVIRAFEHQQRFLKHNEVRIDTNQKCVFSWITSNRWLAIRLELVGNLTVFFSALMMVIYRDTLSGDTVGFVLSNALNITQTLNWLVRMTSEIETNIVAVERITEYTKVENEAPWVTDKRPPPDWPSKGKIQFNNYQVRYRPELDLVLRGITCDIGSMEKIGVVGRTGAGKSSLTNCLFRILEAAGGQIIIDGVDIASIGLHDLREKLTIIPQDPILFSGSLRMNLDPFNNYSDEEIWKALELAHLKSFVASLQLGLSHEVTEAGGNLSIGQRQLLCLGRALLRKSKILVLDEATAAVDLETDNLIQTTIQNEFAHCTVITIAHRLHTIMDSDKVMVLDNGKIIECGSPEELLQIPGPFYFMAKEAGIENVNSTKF

5(6)-Carboxy-2′,7′-dichlorofluorescein diacetate [CDCFDA]
efflux ratio of CDCFDA (MRP2): 3.82 ± 0.51

CN(C)C(=O)CCSC(SCCC(=O)O)c1cccc(/C=C/c2ccc3ccc(Cl)cc3n2)c1 (centres unmarked) [MK571]
effect on biliary excretion of silybin and its conjugates ([1]; MK571 50 μM, positive control): significantly inhibited

COC(=O)c1ccccc1-c1c2ccc(=N)cc-2oc2cc(N)ccc12 [Rho123, Rhodamine 123]
efflux ratio at 180 min (MDR1): 3.68 ± 0.44

O=c1cc(-c2ccccc2)oc2cc(O)c(O)c(O)c12 [baicalein, 5,6,7-trihydroxyflavone]
Haemorrhage (histologic score, liver H&E) [2, 4]: 2.2±0.4 | Inflammation (histologic score, liver H&E) [2, 4]: 2.2±0.8 | Nerosis (histologic score, liver H&E) [2, 4]: 3.0±0.6 | Steatosis (histologic score, liver H&E) [2, 4]: 2.3±0.8 | protection of liver injury by baicalein itself ([2]; CCl4-induced acute liver injury model): failed to show significant benefits | glucuronides/sulfates of baicalein in the plasma or cell ([3]; after oral administration or dosing in the Caco-2 cell model, Li et al., 2012): 75.7% | absolute absorption ([3]; passive diffusion): 40% | reduction of the biliary excretion of silybin conjugates ([1]; baicalein 25 μM): ~90% | lowest effective dosage inhibiting efflux transport of silybin (Caco-2 cells): 0.5 µM

O=C(O)[C@H]1O[C@@H](Oc2cc3oc(-c4ccccc4)cc(=O)c3c(O)c2O)[C@H](O)[C@@H](O)[C@@H]1O [baicalin]
relative absorption compared with baicalein ([3]; after oral administration): 65%

C=Cc1c(C)c2cc3nc(c4c5[nH]c(cc6nc(cc1[nH]2)C(C)=C6CC)c(C)c5C(=O)[C@@H]4C(=O)OC)[C@@H](CCC(=O)O)[C@@H]3C [pheophorbide A]
efflux ratio at 180 min (BCRP): 2.82 ± 0.13

Reference: PMC6212553, “Baicalein Enhances the Oral Bioavailability and Hepatoprotective Effects of Silybin Through the Inhibition of Efflux Transporters BCRP and MRP2” (Frontiers in Pharmacology, 2018)
